According to ChEMBL document CHEMBL5303765, “Data for DCP probe BAY-7081” (2023):

Experiments:
[1] = target: Kappa-type opioid receptor (Homo sapiens) (UniProt P41145); conditions: Compound concentration 10.0 uM
[2] = target: T1, Dual specificity mitogen-activated protein kinase kinase 7 (Homo sapiens) (UniProt O14733); test: MAP2K7 SGC Tm panel (DSF); conditions: for ΔTm: Compound concentration 10.0 uM
T1 sequence (whole entry): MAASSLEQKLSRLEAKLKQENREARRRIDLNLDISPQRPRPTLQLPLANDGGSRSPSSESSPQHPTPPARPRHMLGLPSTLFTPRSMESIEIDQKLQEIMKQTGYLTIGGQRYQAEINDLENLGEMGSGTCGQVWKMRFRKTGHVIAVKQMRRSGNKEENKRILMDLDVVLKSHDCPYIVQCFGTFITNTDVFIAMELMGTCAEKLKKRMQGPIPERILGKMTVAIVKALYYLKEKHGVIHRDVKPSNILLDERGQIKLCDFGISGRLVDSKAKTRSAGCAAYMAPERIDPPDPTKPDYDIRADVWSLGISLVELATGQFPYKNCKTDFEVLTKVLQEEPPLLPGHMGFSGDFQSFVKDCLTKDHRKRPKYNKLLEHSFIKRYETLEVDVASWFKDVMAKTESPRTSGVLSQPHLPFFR

[3] = target: Fibroblast growth factor receptor 1 (Homo sapiens) (UniProt P11362); test: FGFR1 SGC Tm panel (DSF); conditions: for ΔTm: Compound concentration 10.0 uM
[4] = target: T2, Serine/threonine-protein kinase tousled-like 1 (Homo sapiens) (UniProt Q9UKI8); test: TLK1 SGC Tm panel (DSF); conditions: for ΔTm: Compound concentration 10.0 uM
T2 sequence (whole entry): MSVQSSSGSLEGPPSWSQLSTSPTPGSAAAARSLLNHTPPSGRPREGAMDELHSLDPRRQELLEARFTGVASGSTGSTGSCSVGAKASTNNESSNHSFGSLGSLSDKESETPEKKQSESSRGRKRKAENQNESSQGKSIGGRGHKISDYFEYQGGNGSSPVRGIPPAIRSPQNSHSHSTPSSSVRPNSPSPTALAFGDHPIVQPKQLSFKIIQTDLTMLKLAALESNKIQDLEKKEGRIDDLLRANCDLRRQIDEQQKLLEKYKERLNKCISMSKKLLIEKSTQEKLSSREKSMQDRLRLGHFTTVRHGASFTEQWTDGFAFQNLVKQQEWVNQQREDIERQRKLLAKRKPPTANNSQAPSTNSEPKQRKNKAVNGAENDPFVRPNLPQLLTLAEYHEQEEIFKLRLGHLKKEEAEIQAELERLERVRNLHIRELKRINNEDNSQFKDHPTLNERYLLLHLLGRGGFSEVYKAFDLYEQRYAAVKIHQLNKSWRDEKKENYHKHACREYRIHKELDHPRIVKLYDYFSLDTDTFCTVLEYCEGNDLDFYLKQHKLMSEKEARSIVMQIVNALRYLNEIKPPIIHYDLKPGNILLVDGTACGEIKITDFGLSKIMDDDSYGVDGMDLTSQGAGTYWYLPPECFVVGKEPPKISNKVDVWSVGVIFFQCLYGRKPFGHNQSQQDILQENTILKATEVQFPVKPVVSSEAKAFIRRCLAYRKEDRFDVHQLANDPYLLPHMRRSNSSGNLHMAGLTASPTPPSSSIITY

[5] = target: Casein kinase I isoform epsilon (Homo sapiens) (UniProt P49674); test: CSNK1E SGC Tm panel (DSF); conditions: for ΔTm: Compound concentration 10.0 uM
[6] = target: T3, Tyrosine-protein kinase Mer (Homo sapiens) (UniProt Q12866); test: MERTK SGC Tm panel (DSF); conditions: for ΔTm: Compound concentration 10.0 uM
T3 sequence (whole entry): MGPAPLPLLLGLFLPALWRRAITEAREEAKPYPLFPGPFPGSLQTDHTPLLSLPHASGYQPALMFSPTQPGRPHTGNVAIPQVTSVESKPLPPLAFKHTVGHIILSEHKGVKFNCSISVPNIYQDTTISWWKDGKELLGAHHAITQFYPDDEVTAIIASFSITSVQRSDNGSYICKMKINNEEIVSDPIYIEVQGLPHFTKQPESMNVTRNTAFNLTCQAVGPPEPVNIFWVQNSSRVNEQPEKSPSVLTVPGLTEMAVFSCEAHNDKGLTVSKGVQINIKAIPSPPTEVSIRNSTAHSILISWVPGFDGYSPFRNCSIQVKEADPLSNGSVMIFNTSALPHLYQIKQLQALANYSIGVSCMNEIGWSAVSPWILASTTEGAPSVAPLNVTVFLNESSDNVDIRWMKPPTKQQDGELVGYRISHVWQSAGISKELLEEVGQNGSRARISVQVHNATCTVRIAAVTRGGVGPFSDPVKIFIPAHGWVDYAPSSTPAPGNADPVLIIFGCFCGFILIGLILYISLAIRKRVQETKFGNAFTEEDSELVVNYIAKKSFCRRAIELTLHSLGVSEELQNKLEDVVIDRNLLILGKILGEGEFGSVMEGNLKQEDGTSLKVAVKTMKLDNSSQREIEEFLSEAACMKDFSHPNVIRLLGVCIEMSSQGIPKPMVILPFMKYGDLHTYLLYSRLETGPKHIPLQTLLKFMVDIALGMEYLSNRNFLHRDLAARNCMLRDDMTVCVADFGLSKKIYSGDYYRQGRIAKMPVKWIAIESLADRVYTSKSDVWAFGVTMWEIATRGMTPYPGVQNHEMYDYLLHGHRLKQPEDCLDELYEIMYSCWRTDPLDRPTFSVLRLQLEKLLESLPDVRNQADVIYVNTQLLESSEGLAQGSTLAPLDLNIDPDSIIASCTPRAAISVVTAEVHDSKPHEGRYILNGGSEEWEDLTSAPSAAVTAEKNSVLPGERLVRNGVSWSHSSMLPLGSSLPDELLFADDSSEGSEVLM

[7] = target: T4, Dual specificity mitogen-activated protein kinase kinase 4 (Homo sapiens) (UniProt P45985); test: MAP2K4 SGC Tm panel (DSF); conditions: for ΔTm: Compound concentration 10.0 uM
T4 sequence (whole entry): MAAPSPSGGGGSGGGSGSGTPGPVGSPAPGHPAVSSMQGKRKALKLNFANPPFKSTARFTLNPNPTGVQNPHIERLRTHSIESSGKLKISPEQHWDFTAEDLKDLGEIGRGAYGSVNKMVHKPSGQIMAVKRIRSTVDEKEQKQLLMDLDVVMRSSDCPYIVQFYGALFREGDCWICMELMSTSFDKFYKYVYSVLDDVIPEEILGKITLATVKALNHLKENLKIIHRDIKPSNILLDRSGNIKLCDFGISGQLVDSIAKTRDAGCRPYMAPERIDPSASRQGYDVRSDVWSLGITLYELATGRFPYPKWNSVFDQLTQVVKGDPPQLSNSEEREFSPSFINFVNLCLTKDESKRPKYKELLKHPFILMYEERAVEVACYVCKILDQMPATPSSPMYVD

Sequence of Casein kinase I isoform epsilon (Homo sapiens) (P49674 whole entry, looked up, canonical isoform): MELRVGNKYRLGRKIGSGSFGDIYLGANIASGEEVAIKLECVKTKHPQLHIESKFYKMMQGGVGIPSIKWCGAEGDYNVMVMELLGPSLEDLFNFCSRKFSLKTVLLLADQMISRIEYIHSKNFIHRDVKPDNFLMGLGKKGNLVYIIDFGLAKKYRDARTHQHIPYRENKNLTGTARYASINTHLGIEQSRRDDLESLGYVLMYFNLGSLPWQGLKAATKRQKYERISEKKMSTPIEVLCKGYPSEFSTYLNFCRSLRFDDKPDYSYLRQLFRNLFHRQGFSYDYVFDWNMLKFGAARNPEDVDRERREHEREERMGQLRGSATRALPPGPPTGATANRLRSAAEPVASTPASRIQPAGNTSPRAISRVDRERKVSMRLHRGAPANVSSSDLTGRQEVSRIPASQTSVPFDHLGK
Sequence of Fibroblast growth factor receptor 1 (Homo sapiens) (P11362 22-822 limits assumed): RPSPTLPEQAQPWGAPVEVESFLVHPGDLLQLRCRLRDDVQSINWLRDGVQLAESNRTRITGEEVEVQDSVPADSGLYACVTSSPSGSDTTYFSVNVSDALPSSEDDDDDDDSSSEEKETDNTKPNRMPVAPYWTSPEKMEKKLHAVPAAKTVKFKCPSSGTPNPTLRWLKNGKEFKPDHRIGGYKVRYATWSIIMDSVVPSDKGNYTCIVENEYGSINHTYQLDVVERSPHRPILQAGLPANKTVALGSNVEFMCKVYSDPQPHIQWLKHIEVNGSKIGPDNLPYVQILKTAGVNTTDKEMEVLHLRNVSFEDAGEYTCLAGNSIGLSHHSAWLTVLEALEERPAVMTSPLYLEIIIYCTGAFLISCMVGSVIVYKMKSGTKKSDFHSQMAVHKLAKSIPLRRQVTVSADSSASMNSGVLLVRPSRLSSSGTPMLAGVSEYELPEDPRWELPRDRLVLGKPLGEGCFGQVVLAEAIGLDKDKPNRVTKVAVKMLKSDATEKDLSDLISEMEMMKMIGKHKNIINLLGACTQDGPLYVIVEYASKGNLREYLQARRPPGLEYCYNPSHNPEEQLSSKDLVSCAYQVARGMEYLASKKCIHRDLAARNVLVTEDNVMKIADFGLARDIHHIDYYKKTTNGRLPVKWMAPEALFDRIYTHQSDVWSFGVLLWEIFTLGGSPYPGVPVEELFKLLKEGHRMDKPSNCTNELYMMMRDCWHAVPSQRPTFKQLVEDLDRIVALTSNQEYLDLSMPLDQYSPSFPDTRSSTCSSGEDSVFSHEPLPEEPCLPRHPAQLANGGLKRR
Sequence of Kappa-type opioid receptor (Homo sapiens) (P41145 whole entry): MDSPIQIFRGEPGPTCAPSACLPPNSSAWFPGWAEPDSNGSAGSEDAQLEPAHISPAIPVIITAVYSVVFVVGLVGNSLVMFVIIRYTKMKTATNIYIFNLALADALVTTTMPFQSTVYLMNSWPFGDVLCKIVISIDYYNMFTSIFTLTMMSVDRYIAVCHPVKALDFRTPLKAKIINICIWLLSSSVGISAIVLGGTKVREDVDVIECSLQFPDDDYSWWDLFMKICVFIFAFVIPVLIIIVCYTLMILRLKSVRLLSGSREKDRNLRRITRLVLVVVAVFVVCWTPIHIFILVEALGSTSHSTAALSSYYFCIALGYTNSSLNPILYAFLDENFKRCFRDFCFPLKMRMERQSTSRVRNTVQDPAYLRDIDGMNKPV

| Structure (SMILES) | inhibition [1] [%] | delta Tm Staurosporine positive control [2] | ΔTm [2] | delta Tm Staurosporine positive control [3] | ΔTm [3] | delta Tm Staurosporine positive control [4] | ΔTm [4] | delta Tm Staurosporine positive control [5] | ΔTm [5] | delta Tm Staurosporine positive control [6] | ΔTm [6] | delta Tm Staurosporine positive control [7] | ΔTm [7] |
| --- | --- | --- | --- | --- | --- | --- | --- | --- | --- | --- | --- | --- | --- |
| CCC[C@@H]1CNCc2c1[nH]c(=O)c(C#N)c2N1CCC2(CC1)CC2 | 29.3 | 7.05 | -1.17 | 5.57 | -0.198 | 9.74 | -1.18 | 3.12 | -0.0146 | 6.4 | -0.932 | 11.8 | -0.34 |
| CCC[C@H]1CNCc2c1[nH]c(=O)c(C#N)c2N1CCC2(CC1)CC2 | 34.3 | 7.05 | -1.17 | 5.57 | -0.133 | 9.74 | -1.34 | 3.12 | -0.118 | 6.4 | -0.991 | 11.8 | -0.306 |
